In paper PMC11470957, “Principles of paralog-specific targeted protein degradation engaging the C-degron E3 KLHDC2” (Nature Communications, 2024):
Values joined by “and” are separate entries in the source; they are usually repeats but may differ in a detail not shown here. Equal values may be shown once.

How the values were obtained:
KLHDC2^SBD [1] = target: T1, KLHDC2^SBD (Homo sapiens, UniProt Q9Y2U9); test: Surface plasmon resonance binding to KLHDC2; parameters: KLHDC2^SBD (15-361) and its Avi-tagged counterpart were expressed in E. coli Rosetta2 cells; 6XHis-MBP (N, cleaved yes); made in house; host or cells: E. coli Rosetta2; conditions: for SPR Response: FigS3d
T1 sequence (Q9Y2U9 15-361): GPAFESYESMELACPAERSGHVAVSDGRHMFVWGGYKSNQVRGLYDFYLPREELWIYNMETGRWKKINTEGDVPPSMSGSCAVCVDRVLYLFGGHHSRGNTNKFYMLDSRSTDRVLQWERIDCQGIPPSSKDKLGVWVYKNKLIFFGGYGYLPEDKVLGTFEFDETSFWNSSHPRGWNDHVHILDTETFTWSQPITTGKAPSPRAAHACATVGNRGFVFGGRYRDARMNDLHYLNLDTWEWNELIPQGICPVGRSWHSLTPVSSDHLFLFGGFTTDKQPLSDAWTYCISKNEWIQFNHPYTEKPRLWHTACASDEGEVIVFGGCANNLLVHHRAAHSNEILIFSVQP
Experimental: Surface plasmon resonance (SPR) was utilized to determine kinetic parameters and binding affinity of KLHDC2 substrates using a PioneerFE (Sartorius). Experiments were carried out in 20 mM Tris, 200 mM NaCl, 1 mM TCEP, 0.01% Brij35, and 1% DMSO at pH 7.4 as a running buffer with a 100 µL/min flow rate at 20 °C.
The 10xHis-KLHDC2 was immobilized onto a Ni-NTA-coated biosensor chip (HisCap). The chip surface was conditioned using 10 mM HCl, 50 mM NaOH, and 0.1% SDS (50 µL at 100 µL/min) twice, followed by a 100 mM Tris buffer wash (100 µL at 100 µL/min). The surface was then activated using an injection of 0.5 M EDTA (125 µL at 25 µL/min) followed by an injection of 5 mM NiCl2 (125 µL at 25 µL/min). […] Channel 2 was treated identically to channel 3 except for protein loading to be used as a reference channel. […] 100% of the loop was injected with a 300 s dissociation time. All samples were run in triplicate. Data was analyzed using Qdat software and fit to a simple 1-site model.
The SPR experiments were performed to determine the binding affinities (KD) of KLHDC2-SJ46411 and KLHDC2-SJ46418 complexes. All the experiments were performed using a Biacore 1S+ instrument. […] The running buffer consisted of 20 mM Tris pH 7.5, 200 mM NaCl, 1 mM TCEP, 0.01% Brij35, and 4% DMSO. […] In brief, before the immobilization, the sensor chip surface was conditioned by injecting a mixture of (3:1 v/v) 8 M guanidine hydrochloride and 1 M NaOH at a flow rate of 5 μL/min for 2 min for two times. Then, running buffer was injected at a 30 μl/min flow rate for 1 min 3 times. Next, the Biotin CAPture reagent was injected at a flow rate of 2 μl/min for 5 min. Then, biotinylated KLHDC2 was only injected onto the active channel (channel 2).
Sample preparation was carried out precisely the same as SJ46411. All experiments were performed using a multi-cycle analysis method with a 30 μl/min flow rate, 120 S association, and 240 s dissociation time. All data were reference subtracted and corrected for DMSO mismatch. The sensorgrams were analyzed using Biacore insight evaluation software, and KD was determined using the 1:1 steady-state affinity fitting. Finally, all the analyzed data was replotted using GraphPad Prizm 10 software.

KLHDC2^SBD [2] = target: T1, KLHDC2^SBD; test: TR-FRET assay, competition with di-Gly degron peptide binding to KLHDC2^SBD; parameters: KLHDC2^SBD (15-361) and its Avi-tagged counterpart were expressed in E. coli Rosetta2 cells; 6XHis-MBP (N, cleaved yes); made in house; host or cells: E. coli Rosetta2
Experimental: TR-FRET assays were carried out in black 384-well microtiter plates at a final volume of 20 μL per well. An assay cocktail was prepared as a mixture of 50 nM Biotin-KLHDC2 SBD, 20 nM AlexaFluor488-RIC8B peptide, 2.5 nM Tb-Streptavidin (ThermoFisher) in assay buffer (25 mM HEPES, 100 mM NaCl, 0.1% Triton X-100, 0.5 mM DTT, pH 7.5). The assay cocktail was incubated for thirty-minutes at room temperature and 20 μl distributed to assay plates. Molecules were distributed to the plates at the indicated concentration and the assay mixture was incubated for 1 h at room temperature prior to measuring the TR-FRET signal with a PHERAstar FS plate reader (BMG Labtech) equipped with modules for excitation at 337 nm and emissions at 490 and 520 nm. The integration start was set to 100 µs and the integration time to 200 µs. The number of flashes was fixed at 100. The ratio of 520/490 was used as TR-FRET signal in calculations. Assay endpoints were normalized to 100% (buffer only) and used for curve fitting in Prism.

KLHDC2^SBD [3] = target: T1, KLHDC2^SBD; test: ITC, binary binding of small molecule to KLHDC2^SBD
[4] = cell: ligand, syringe: KLHDC2^SBD

## COCCOc1cccc2ccc(-c3nc(CC(=O)NCC(=O)O)cs3)cc12 [SJ46418]
KLHDC2^SBD [1]; 0.390625fit, time -29.3 s
  Raw SPR data, fit: 0.00734
KLHDC2^SBD [1]; 0.78125 fit, time -29 s
  Raw SPR data, fit: 0.01901
KLHDC2^SBD [1]; 0.78125 fit, time -29.1 s
  Raw SPR data, fit: 0.01908
KLHDC2^SBD [1]; 0.78125 fit, time -29.2 s
  Raw SPR data, fit: 0.01915
KLHDC2^SBD [1]; 0.78125 fit, time -29.3 s
  Raw SPR data, fit: 0.01921
KLHDC2^SBD [1]; 1.5625 fit, time -29 s
  Raw SPR data, fit: 0.01693
KLHDC2^SBD [1]; 1.5625 fit, time -29.1 s
  Raw SPR data, fit: 0.01699
KLHDC2^SBD [1]; 1.5625 fit, time -29.2 s
  Raw SPR data, fit: 0.01704
KLHDC2^SBD [1]; 1.5625 fit, time -29.3 s
  Raw SPR data, fit: 0.0171
KLHDC2^SBD [1]; 2.34375fit, time -29 s
  Raw SPR data, fit: 0.02325
KLHDC2^SBD [1]; 2.34375fit, time -29.1 s
  Raw SPR data, fit: 0.02333
KLHDC2^SBD [1]; 2.34375fit, time -29.2 s
  Raw SPR data, fit: 0.02341
KLHDC2^SBD [1]; 2.34375fit, time -29.3 s
  Raw SPR data, fit: 0.0235
KLHDC2^SBD [1]; 3.125 fit, time -29 s
  Raw SPR data, fit: 0.02052
KLHDC2^SBD [1]; 3.125 fit, time -29.1 s
  Raw SPR data, fit: 0.02059
KLHDC2^SBD [1]; 3.125 fit, time -29.2 s
  Raw SPR data, fit: 0.02066
KLHDC2^SBD [1]; 3.125 fit, time -29.3 s
  Raw SPR data, fit: 0.02074
KLHDC2^SBD [1]; 4.6875 fit, time -29 s
  Raw SPR data, fit: 0.02316
KLHDC2^SBD [1]; 4.6875 fit, time -29.1 s
  Raw SPR data, fit: 0.02324
KLHDC2^SBD [1]; 4.6875 fit, time -29.2 s
  Raw SPR data, fit: 0.02332
KLHDC2^SBD [1]; 4.6875 fit, time -29.3 s
  Raw SPR data, fit: 0.0234
KLHDC2^SBD [1]; 12.5 fit, time -29 s
  Raw SPR data, fit: 0.01922
KLHDC2^SBD [1]; 12.5 fit, time -29.1 s
  Raw SPR data, fit: 0.01929
KLHDC2^SBD [1]; 12.5 fit, time -29.2 s
  Raw SPR data, fit: 0.01935
KLHDC2^SBD [1]; 12.5 fit, time -29.3 s
  Raw SPR data, fit: 0.01942
KLHDC2^SBD [1]; analyte 0.0977 μM
  SPR Response: 0.48 RU
KLHDC2^SBD [1]; analyte 0.195 μM
  SPR Response: 0.7348 RU
KLHDC2^SBD [1]; analyte 0.391 μM
  SPR Response: 1.4491 RU
KLHDC2^SBD [1]; analyte 0.781 μM
  SPR Response: 2.3401 RU
KLHDC2^SBD [1]; analyte 1.56 μM
  SPR Response: 3.3797 RU
KLHDC2^SBD [1]; analyte 2.34 μM
  SPR Response: 3.8756 RU
KLHDC2^SBD [1]; analyte 4.69 μM
  SPR Response: 4.4852 RU
KLHDC2^SBD [1]; analyte 12.5 μM
  SPR Response: 5.3052 RU
KLHDC2^SBD [1]; n=1
  SPR Rmax: 5.70 +/- 0.20
KLHDC2^SBD [1]; read-out: SPR Kd
  Kd: 1 µM and 0.983 µM
KLHDC2^SBD [2]; Log Concentration 2.39794
  % Inhibition, normalized TR-FRET dose response: 13.1742% and 22.1732% and 17.7572%
KLHDC2^SBD [2]; Log Concentration 2.64098
  % Inhibition, normalized TR-FRET dose response: 24.253% and 29.1375% and 24.8323%
KLHDC2^SBD [2]; Log Concentration 3.273
  % Inhibition, normalized TR-FRET dose response: 57.5653% and 59.1955% and 57.0453%
KLHDC2^SBD [2]; Log Concentration 3.87506
  % Inhibition, normalized TR-FRET dose response: 85.4899% and 86.6902% and 84.0459%
KLHDC2^SBD [2]; Log Concentration 4.39794
  % Inhibition, normalized TR-FRET dose response: 85.0979% and 85.1063% and 81.8885%
KLHDC2^SBD [2]; inhibition of KLHDC2^SBD binding to a di-Gly degron peptide, read-out: TR-FRET IC50
  IC50: 1.1 µM
KLHDC2^SBD [3]; ITC Kd, as printed in Fig 2d/3b
  Kd: 0.21 µM
KLHDC2^SBD [3]; ITC Kd, cell: ligand, syringe: KLHDC2^SBD
  Kd: 0.216 ± 0.017 µM
KLHDC2^SBD [3]; Kd, ITC, syringe KLHDC2, cell compound, Rep1, Rep2
  Kd: 0.205 µM and 0.229 µM
KLHDC2^SBD [3]; [4]
  ITC -TΔS: -0.94 +/- 0.02 kcal/mol-1
  ITC stoichiometry of binding N: 0.9
  ITC ΔG: -8.82 +/- 0.04 kcal/mol-1
  ITC ΔH: -7.88 +/- 0.07 kcal/mol-1
